# Test results as given in ChEMBL document CHEMBL1139621, “Acyclic cyanamide-based inhibitors of cathepsin K” (Bioorg Med Chem Lett, 2005).
# How the values were obtained:
# [1] = molecular target: T1, Cathepsin K (Homo sapiens, UniProt P43235); assay: Inhibition constant against human cathepsin K in fluorescence assay using Cbz-Phe-Arg-AMC
# T1 sequence (P43235 whole entry): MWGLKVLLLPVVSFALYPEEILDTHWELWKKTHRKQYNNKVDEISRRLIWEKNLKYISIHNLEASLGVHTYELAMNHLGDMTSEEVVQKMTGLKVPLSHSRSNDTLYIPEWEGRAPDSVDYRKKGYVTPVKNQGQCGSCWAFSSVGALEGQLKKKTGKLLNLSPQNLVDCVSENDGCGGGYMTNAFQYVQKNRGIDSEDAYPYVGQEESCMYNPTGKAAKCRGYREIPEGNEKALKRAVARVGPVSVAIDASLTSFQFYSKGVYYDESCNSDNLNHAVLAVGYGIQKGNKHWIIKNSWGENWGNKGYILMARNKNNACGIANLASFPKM
# [2] = molecular target: T2, Cathepsin K (Rattus norvegicus, UniProt O35186); assay: Inhibition constant against rat cathepsin K
# T2 sequence (O35186 whole entry): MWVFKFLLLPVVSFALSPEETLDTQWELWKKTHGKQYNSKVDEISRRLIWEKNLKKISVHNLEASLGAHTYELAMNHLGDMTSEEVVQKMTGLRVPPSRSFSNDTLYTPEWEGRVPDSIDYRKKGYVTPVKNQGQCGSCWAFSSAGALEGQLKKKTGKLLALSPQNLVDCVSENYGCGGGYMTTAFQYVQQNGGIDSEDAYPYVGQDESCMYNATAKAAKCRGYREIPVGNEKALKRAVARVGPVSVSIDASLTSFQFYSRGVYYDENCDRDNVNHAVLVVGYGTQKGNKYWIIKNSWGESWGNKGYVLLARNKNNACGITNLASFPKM
# [3] = molecular target: Cathepsin B (Homo sapiens, UniProt P07858); assay: Inhibition constant against human cathepsin B in fluorescence assay using Cbz-Phe-Arg-AMC
# [4] = molecular target: Procathepsin L (Homo sapiens, UniProt P07711); assay: Inhibition constant against human cathepsin L using Cbz-Phe-Arg-AMC
# Sequence of Procathepsin L (P07711 whole entry): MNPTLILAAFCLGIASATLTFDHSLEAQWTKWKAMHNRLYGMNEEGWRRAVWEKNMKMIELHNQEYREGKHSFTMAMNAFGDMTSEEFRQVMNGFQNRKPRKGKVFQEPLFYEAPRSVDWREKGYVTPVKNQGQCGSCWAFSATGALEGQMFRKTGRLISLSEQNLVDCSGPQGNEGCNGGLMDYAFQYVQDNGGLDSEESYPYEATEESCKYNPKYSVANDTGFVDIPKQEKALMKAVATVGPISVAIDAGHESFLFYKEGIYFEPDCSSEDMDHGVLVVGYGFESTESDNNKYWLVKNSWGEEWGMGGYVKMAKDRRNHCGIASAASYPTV
# [5] = molecular target: T3, Pro-cathepsin H (Homo sapiens, UniProt P09668); assay: Inhibition constant against human cathepsin H using L-Arg-b-naphthalamide
# T3 sequence (P09668 whole entry): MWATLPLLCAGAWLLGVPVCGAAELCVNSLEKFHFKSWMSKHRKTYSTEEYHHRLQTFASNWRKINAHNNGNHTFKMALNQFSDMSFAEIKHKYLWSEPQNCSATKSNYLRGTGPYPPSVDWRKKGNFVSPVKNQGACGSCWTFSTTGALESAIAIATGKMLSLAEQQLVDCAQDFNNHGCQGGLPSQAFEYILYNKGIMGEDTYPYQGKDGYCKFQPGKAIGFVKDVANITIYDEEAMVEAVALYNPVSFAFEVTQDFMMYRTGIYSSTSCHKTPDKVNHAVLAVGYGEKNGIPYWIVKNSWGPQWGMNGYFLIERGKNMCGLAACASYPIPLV
# [6] = molecular target: T1, Cathepsin K; assay: Inhibition constant against human cathepsin K
SMILES,Ki [1],also measured
CC[C@@H](Cc1ccccc1)OC(=O)NN(C)C#N,0.032 nM,Ki [2]: 0.072 nM; Ki [3]: 0.25 nM; Ki [4]: 0.036 nM
C[C@@H](C#N)NC(=O)O[C@@H](C)CC1CCCCC1,> 13000 nM,–
C[C@@H](CC1CCCCC1)OC(=O)[C@H](C)N(C)C#N,2300 nM,–
C[C@@H](CC1CCCCC1)OC(=O)CN(C)C#N,26 nM,Ki [3]: 2600 nM; Ki [4]: 1500 nM; Ki [5]: > 13000 nM
C[C@@H](CC1CCCCC1)OC(=O)N(C)N(C)C#N,62 nM,–
C[C@@H](CC1CCCCC1)OC(=O)[C@@H]1CCCN1C#N,–,Ki [6]: 1.8 nM
C[C@@H](CC1CCCCC1)NC(=O)CN(C)C#N,830 nM,–
C[C@H](C#N)NC(=O)O[C@@H](C)CC1CCCCC1,> 13000 nM,–
N#CN1CCCC1 [CYANO-PYRROLIDINE],–,Ki [6]: 2100 nM
CC(C)N(C#N)NC(=O)O[C@@H](C)CC1CCCCC1,0.019 nM,Ki [3]: 1.3 nM; Ki [4]: 0.79 nM; Ki [5]: 0.46 nM
CC(C)(C)OC(=O)[C@@H]1CCCN1C#N,–,Ki [6]: 60 nM
C[C@@H](CC1CCCCC1)OC(=O)NCC#N,7900 nM,–
C[C@H](C(=O)O[C@@H](C)CC1CCCCC1)N(C)C#N,> 13000 nM,–
C[C@@H](CC1CCCCC1)OC(=O)NN(C#N)C(C)(C)C,1500 nM,–

# The next lines start with results.
Ki [1],SMILES,also measured
0.004 nM,CC(C)CN(C#N)NC(=O)O[C@@H](C)CC1CCCCC1,–
0.007 nM,CCCCN(C#N)NC(=O)O[C@@H](C)CC1CCCCC1,–
0.009 nM,C[C@@H](CC1CCCCC1)OC(=O)NN(C)C#N,Ki [3]: 0.077 nM; Ki [4]: 0.025 nM; Ki [5]: 1.4 nM
0.003 nM,CCN(C#N)NC(=O)O[C@@H](C)CC1CCCCC1,–
0.004 nM,CCCN(C#N)NC(=O)O[C@@H](C)CC1CCCCC1,–
0.006 nM,C[C@@H](CC1CCCCC1)OC(=O)NN(C#N)Cc1ccccc1,–
